Measured values from US11045554B1 (National Technology & Engineering Solutions of Sandia, LLC, priority 2018, dated 2021).
In brackets after ≈: the same amount, converted by molar mass.

Tests used:
HeLa cells = assay type: cell-based
[1] = pH 7.4; cited from earlier work
[2] = test system: VEEV vaccine strain (TC-83); conditions: cited from earlier work
TC-83 [3] = test system: TC-83; parameters: species or system C3H/HeN mice; conditions: mouse, in vivo
TC-83 virus = assay: microbe, parasite or virus in culture; assay type: cell-based, Venezuelan equine encephalitis virus (VEEV)
[4] = test system: VEEV (ZPC738 virulent strain); assay: microbe, parasite or virus in culture; assay type: cell-based, Venezuelan equine encephalitis virus (VEEV)
TC-83 [5] = conditions: mouse, in vivo, ip; cited from earlier work
[6] = Venezuelan equine encephalitis virus, HeLa, 24 h

SMILES: CO/C1=C\C(C)=C\[C@@H](C)[C@@H](O)[C@@H](C)C/C(C)=C/C=C/[C@H](OC)[C@@H]([C@@H](C)[C@@H](O)[C@H](C)[C@@]2(O)C[C@@H](O)[C@H](C)[C@@H](C(C)C)O2)OC1=O [BAF, bafilomycin A]
- LC-MSN internalization / uptake in presence of inhibitor (in words) (HeLa cells): almost completely inhibited
- LC-MSN internalization in presence of inhibitor (in words) (HeLa cells): clearly inhibited

SMILES: CCCCCCCCCCCCCC(=O)O[C@@H]1[C@@H](C)[C@@]2(O)[C@@H](C=C(CO)C[C@]3(O)C(=O)C(C)=C[C@@H]23)[C@@H]2C(C)(C)[C@]12OC(C)=O [PMA, phorbol 12-myristate 13-acetate]
- LC-MSN internalization in presence of inhibitor (in words) (HeLa cells): not

SMILES: O=C(N/N=C/c1ccc(O)c(O)c1)c1cc2ccccc2cc1O [DYN, dynasore]
- LC-MSN internalization in presence of inhibitor (in words) (HeLa cells): clearly inhibited
- reduction of the percentage of cells that internalized LC-MSNs (HeLa cells): 71%

SMILES: CN(C)CCCN1c2ccccc2Sc2ccc(Cl)cc21 [CPZ, chlorpromazine]
- LC-MSN internalization in presence of inhibitor (in words) (HeLa cells): clearly inhibited
- reduction of the percentage of cells that internalized LC-MSNs (HeLa cells): 84%

SMILES: Oc1ccc2ccccc2c1SSc1c(O)ccc2ccccc12 [IPA-3]
- LC-MSN internalization in presence of inhibitor (in words) (HeLa cells): not

SMILES: CN1CCN(C)C(=Nc2ccc([N+](=O)[O-])cc2C(=O)Nc2ccccc2)C1 [ML336, 2-[(1,4-dimethylpiperazin-2-ylidene)amino]-5-nitro-N-phenylbenzamide]
- solubility [1]: 40 µg/mL (≈ 109 µM)
- reduction of viral titer ([2]; at nanomolar concentrations): 630,000 fold
- EC90 [2]: 170 nM
- brain viral load / titer vs PBS (in words) (TC-83 [3]): not significantly different from PBS treated animals
- TC-83 viral inhibition (in words) (TC-83 virus; HeLa cells, increasing concentration or LC-MSN mass): dose-dependent manner
- IC50 (TC-83 virus; [6]): 163 nM
- VEEV viral inhibition (in words) ([4]; HeLa cells, 24 hours): dose-dependent manner
- IC50 [4, 6]: 15 nM
- survival rate (TC-83 [5]): 71%
